From the kinase profiling compilation of Christmann-Franck et al. (2016)

Columns and labels:
Assay in all cases: KINOMEscan competition binding
Conditions in all cases: compound 10.0 µM
MAP2K1 (human) = MAP2K1 (human) (UniProt Q02750)
BMPR1B (human) = BMPR1B (human) (UniProt O00238)
FLT4 (human) = FLT4 (human) (UniProt P35916)
DAPK1 (human) = DAPK1 (human) (UniProt P53355)
CDK19 (human) = CDK19 (human) (UniProt Q9BWU1)
STK3 (human) = STK3 (human) (UniProt Q13188)
MAPK13 (human) = MAPK13 (human) (UniProt O15264)
EPHA5 (human) = EPHA5 (human) (UniProt P54756)
CAMK2G (human) = CAMK2G (human) (UniProt Q13555)
PRKAA2 (human) = PRKAA2 (human) (UniProt P54646)
DCLK3 (human) = DCLK3 (human) (UniProt Q9C098)
YES1 (human) = YES1 (human) (UniProt P07947)
ITK (human) = ITK (human) (UniProt Q08881)
AAK1 (human) = AAK1 (human) (UniProt Q2M2I8)
STK32C (human) = STK32C (human) (UniProt Q86UX6)
MAP2K3 (human) = MAP2K3 (human) (UniProt P46734)
EIF2AK2 (human) = EIF2AK2 (human) (UniProt P19525)
EPHA1 (human) = EPHA1 (human) (UniProt P21709)
AKT3 (human) = AKT3 (human) (UniProt Q9Y243)
MUSK (human) = MUSK (human) (UniProt O15146)
TEC (human) = TEC (human) (UniProt P42680)
EPHA2 (human) = EPHA2 (human) (UniProt P29317)
[1] = tested on: ABL1 (human), P00519 [M351T]
CDK11B (human) = CDK11B (human) (UniProt P21127)
SRC (human) = SRC (human) (UniProt P12931)
MERTK (human) = MERTK (human) (UniProt Q12866)
ACVR1B (human) = ACVR1B (human) (UniProt P36896)
CSNK1D (human) = CSNK1D (human) (UniProt P48730)
BMPR2 (human) = BMPR2 (human) (UniProt Q13873)
MAPK10 (human) = MAPK10 (human) (UniProt P53779)
SIK1 (human) = SIK1 (human) (UniProt P57059)
HCK (human) = HCK (human) (UniProt P08631)
RIPK1 (human) = RIPK1 (human) (UniProt Q13546)
PRKD3 (human) = PRKD3 (human) (UniProt O94806)
ADCK4 (human) = ADCK4 (human) (UniProt Q96D53)
CHEK1 (human) = CHEK1 (human) (UniProt O14757)
PHKG2 (human) = PHKG2 (human) (UniProt P15735)
MINK1 (human) = MINK1 (human) (UniProt Q8N4C8)
NEK1 (human) = NEK1 (human) (UniProt Q96PY6)
FLT3 (human) = FLT3 (human) (UniProt P36888)

Chain of HCK (human) (P08631 whole entry, looked up): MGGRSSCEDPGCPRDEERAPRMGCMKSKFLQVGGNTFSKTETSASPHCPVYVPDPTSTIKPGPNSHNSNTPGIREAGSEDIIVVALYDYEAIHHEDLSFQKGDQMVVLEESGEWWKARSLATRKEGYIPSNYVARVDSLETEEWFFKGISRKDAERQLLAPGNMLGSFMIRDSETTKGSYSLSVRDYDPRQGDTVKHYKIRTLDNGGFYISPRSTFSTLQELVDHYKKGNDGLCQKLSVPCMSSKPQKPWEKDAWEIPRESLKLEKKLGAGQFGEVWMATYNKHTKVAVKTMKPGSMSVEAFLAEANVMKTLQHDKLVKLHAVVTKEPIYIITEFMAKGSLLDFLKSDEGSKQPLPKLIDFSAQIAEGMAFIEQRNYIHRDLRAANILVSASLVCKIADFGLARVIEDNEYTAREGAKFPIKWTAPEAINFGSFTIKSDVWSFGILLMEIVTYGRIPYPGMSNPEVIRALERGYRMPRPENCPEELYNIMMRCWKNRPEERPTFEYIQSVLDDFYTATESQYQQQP
Chain of EIF2AK2 (human) (P19525 whole entry, looked up): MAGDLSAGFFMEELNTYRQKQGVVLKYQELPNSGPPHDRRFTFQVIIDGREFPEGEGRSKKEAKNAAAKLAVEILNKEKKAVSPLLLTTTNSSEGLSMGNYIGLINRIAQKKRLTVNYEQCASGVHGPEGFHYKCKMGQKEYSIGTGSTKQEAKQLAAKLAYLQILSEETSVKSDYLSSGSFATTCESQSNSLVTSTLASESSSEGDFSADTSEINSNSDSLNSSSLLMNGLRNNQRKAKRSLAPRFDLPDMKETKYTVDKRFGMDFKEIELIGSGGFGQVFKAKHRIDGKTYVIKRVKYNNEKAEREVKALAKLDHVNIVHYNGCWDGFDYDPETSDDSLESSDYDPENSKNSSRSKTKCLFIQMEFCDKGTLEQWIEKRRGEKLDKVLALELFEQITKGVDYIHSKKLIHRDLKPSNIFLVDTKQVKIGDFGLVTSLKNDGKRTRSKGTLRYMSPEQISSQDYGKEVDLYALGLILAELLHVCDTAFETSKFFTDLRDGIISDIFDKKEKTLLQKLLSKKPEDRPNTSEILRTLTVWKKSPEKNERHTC
Chain of TEC (human) (P42680 whole entry, looked up): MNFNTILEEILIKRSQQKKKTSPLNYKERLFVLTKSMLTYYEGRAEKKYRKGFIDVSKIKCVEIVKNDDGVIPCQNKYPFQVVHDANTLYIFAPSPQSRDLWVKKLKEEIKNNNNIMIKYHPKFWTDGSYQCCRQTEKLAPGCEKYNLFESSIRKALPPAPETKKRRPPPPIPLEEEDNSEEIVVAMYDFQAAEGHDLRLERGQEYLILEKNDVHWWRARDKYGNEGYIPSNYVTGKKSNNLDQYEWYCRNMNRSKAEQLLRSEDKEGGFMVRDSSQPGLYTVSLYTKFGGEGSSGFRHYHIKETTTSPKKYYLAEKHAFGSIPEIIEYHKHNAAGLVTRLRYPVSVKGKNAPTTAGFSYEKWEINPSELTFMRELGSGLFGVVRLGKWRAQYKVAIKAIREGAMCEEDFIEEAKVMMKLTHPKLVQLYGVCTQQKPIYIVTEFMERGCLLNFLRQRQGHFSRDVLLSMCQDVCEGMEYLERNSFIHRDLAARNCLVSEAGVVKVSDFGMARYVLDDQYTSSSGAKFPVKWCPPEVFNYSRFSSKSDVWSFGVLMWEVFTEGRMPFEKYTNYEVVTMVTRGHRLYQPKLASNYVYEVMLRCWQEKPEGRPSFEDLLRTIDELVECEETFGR
Chain of SRC (human) (P12931 whole entry, looked up): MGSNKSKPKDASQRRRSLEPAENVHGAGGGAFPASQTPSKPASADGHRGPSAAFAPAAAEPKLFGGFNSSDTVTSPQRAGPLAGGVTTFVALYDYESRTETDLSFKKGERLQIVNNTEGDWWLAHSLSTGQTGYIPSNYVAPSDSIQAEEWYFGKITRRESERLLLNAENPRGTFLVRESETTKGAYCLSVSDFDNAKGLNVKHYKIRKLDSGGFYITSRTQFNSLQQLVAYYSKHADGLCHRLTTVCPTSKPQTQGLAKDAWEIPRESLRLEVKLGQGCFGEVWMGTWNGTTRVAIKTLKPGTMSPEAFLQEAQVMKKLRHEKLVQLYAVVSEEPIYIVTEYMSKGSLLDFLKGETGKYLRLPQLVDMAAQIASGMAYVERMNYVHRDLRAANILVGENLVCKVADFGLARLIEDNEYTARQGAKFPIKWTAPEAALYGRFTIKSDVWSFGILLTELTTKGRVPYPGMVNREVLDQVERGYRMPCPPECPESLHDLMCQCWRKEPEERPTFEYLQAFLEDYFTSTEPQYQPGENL
Chain of RIPK1 (human) (Q13546 whole entry, looked up): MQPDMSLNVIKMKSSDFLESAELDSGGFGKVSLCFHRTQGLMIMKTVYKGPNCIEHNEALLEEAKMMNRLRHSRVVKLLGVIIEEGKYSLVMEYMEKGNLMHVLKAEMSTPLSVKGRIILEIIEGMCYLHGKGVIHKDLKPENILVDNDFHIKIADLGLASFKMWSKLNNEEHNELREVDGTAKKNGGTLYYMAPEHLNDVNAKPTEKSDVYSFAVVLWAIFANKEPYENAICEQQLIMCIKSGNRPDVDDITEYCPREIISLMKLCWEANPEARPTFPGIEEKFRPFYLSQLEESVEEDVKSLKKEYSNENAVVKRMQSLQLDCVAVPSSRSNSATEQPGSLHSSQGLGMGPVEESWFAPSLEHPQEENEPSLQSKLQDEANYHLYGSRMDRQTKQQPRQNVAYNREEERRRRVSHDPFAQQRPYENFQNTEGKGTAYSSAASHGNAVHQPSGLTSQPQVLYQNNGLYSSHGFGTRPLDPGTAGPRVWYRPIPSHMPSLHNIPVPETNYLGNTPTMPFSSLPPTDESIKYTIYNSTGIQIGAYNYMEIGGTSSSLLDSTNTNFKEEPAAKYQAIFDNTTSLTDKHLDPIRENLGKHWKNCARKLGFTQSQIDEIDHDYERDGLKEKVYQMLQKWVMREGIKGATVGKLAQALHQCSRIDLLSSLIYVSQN
Chain of PHKG2 (human) (P15735 whole entry, looked up): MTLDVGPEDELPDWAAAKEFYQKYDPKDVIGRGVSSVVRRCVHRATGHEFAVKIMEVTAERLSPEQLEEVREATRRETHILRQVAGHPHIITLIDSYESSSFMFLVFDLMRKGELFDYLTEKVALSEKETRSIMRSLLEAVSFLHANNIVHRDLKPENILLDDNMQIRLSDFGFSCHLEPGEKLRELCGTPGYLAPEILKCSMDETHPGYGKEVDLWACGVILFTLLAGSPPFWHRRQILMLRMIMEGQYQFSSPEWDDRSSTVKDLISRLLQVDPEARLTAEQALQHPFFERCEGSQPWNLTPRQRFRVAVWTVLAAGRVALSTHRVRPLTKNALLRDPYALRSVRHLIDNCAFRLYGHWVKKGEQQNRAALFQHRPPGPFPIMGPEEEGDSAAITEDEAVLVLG
Chain of CSNK1D (human) (P48730 whole entry, looked up): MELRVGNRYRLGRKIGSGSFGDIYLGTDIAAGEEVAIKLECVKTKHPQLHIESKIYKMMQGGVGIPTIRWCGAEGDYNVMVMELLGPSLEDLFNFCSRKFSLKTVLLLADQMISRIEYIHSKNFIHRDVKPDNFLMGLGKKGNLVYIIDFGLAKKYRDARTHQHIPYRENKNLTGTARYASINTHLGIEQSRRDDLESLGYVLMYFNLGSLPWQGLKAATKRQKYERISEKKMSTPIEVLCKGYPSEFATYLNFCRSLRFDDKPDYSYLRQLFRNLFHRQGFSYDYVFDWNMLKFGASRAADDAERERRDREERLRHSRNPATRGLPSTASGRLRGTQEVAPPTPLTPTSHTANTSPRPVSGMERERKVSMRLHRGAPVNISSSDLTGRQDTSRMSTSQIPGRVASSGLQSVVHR
Chain of CAMK2G (human) (Q13555 whole entry, looked up): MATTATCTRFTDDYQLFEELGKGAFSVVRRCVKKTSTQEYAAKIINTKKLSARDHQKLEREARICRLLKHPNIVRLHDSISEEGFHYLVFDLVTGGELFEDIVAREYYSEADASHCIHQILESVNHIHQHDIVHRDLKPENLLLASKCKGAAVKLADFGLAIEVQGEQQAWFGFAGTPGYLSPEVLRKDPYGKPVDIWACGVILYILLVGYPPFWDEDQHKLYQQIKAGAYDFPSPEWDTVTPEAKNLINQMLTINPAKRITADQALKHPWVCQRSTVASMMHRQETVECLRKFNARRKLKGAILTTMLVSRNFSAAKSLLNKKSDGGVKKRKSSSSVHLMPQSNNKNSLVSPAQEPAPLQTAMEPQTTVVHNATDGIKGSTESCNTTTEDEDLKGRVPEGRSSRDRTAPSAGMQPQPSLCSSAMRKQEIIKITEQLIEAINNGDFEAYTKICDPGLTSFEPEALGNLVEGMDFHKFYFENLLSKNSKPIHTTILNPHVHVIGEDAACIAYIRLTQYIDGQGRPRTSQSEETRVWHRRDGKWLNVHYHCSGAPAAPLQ
Chain of STK32C (human) (Q86UX6 whole entry, looked up): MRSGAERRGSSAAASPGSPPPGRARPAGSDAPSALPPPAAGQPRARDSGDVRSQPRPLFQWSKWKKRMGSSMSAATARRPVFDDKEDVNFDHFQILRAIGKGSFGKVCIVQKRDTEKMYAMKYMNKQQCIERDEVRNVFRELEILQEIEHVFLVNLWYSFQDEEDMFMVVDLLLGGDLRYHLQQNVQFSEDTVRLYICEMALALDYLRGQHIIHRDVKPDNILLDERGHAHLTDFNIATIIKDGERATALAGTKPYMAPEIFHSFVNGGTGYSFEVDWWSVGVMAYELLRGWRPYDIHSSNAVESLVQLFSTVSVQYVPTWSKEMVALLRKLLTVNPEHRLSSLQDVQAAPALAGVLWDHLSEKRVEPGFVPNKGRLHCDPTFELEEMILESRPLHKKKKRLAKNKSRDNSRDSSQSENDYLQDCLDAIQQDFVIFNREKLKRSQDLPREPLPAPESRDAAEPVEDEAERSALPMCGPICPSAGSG

| SMILES | kinase still bound, per cent of control (MAP2K1 (human)) [%] | kinase still bound, per cent of control (BMPR1B (human)) [%] | kinase still bound, per cent of control (FLT4 (human)) [%] | kinase still bound, per cent of control (DAPK1 (human)) [%] | kinase still bound, per cent of control (CDK19 (human)) [%] | kinase still bound, per cent of control (STK3 (human)) [%] | kinase still bound, per cent of control (MAPK13 (human)) [%] | kinase still bound, per cent of control (EPHA5 (human)) [%] | kinase still bound, per cent of control (CAMK2G (human)) [%] | kinase still bound, per cent of control (PRKAA2 (human)) [%] | kinase still bound, per cent of control (DCLK3 (human)) [%] | kinase still bound, per cent of control (YES1 (human)) [%] | kinase still bound, per cent of control (ITK (human)) [%] | kinase still bound, per cent of control (AAK1 (human)) [%] | kinase still bound, per cent of control (STK32C (human)) [%] | kinase still bound, per cent of control (MAP2K3 (human)) [%] | kinase still bound, per cent of control (EIF2AK2 (human)) [%] | kinase still bound, per cent of control (EPHA1 (human)) [%] | kinase still bound, per cent of control (AKT3 (human)) [%] | kinase still bound, per cent of control (MUSK (human)) [%] | other results |
| --- | --- | --- | --- | --- | --- | --- | --- | --- | --- | --- | --- | --- | --- | --- | --- | --- | --- | --- | --- | --- | --- |
| Cc1ccc(C(=O)Nc2cccc(C(F)(F)F)c2)cc1Nc1cncc(C(N)=O)c1 | 100 | 100 | 100 | 100 | 25 | 100 | 100 | 1.1 | 100 | 100 | 100 | 100 | 100 | 100 | 100 | 100 | 100 | 100 | 100 | 100 | kinase still bound, per cent of control (TEC (human)): 100%; kinase still bound, per cent of control (EPHA2 (human)): 2.2%; kinase still bound, per cent of control [1]: 27%; kinase still bound, per cent of control (CDK11B (human)): 100%; kinase still bound, per cent of control (SRC (human)): 100%; kinase still bound, per cent of control (MERTK (human)): 100%; kinase still bound, per cent of control (ACVR1B (human)): 100%; kinase still bound, per cent of control (CSNK1D (human)): 100%; kinase still bound, per cent of control (BMPR2 (human)): 100%; kinase still bound, per cent of control (MAPK10 (human)): 100%; kinase still bound, per cent of control (SIK1 (human)): 100%; kinase still bound, per cent of control (HCK (human)): 100%; kinase still bound, per cent of control (RIPK1 (human)): 100%; kinase still bound, per cent of control (PRKD3 (human)): 100%; kinase still bound, per cent of control (ADCK4 (human)): 100%; kinase still bound, per cent of control (CHEK1 (human)): 100%; kinase still bound, per cent of control (PHKG2 (human)): 100%; kinase still bound, per cent of control (MINK1 (human)): 100%; kinase still bound, per cent of control (NEK1 (human)): 100%; kinase still bound, per cent of control (FLT3 (human)): 100% |
| OCCCNc1cc(-c2ccnc(Nc3cccc(Cl)c3)n2)ccn1 | 100 | 100 | 100 | 100 | 100 | 100 | 100 | 100 | 100 | 100 | 100 | 100 | 100 | 21 | 100 | 100 | 100 | 100 | 100 | 100 | kinase still bound, per cent of control (TEC (human)): 100%; kinase still bound, per cent of control (EPHA2 (human)): 100%; kinase still bound, per cent of control [1]: 100%; kinase still bound, per cent of control (CDK11B (human)): 100%; kinase still bound, per cent of control (SRC (human)): 100%; kinase still bound, per cent of control (MERTK (human)): 100%; kinase still bound, per cent of control (ACVR1B (human)): 100%; kinase still bound, per cent of control (CSNK1D (human)): 100%; kinase still bound, per cent of control (BMPR2 (human)): 100%; kinase still bound, per cent of control (MAPK10 (human)): 100%; kinase still bound, per cent of control (SIK1 (human)): 100%; kinase still bound, per cent of control (HCK (human)): 100%; kinase still bound, per cent of control (RIPK1 (human)): 100%; kinase still bound, per cent of control (PRKD3 (human)): 100%; kinase still bound, per cent of control (ADCK4 (human)): 100%; kinase still bound, per cent of control (CHEK1 (human)): 100%; kinase still bound, per cent of control (PHKG2 (human)): 100%; kinase still bound, per cent of control (MINK1 (human)): 100%; kinase still bound, per cent of control (NEK1 (human)): 100%; kinase still bound, per cent of control (FLT3 (human)): 100% |
